Data on 14 compounds can be found in article PMC7059793, “Novel Chemical Scaffolds to Inhibit the Neutral Amino Acid Transporter B^0AT1 (SLC6A19), a Potential Target to Treat Metabolic Diseases” (Frontiers in Pharmacology, 2020).

Like-named read-outs stand apart in the source and are kept apart here.

Test [1] addresses T1, B^0AT1 (Homo sapiens, UniProt Q695T7).
T1 construct: expressed in transfected cells
T1 sequence (Q695T7 1-634): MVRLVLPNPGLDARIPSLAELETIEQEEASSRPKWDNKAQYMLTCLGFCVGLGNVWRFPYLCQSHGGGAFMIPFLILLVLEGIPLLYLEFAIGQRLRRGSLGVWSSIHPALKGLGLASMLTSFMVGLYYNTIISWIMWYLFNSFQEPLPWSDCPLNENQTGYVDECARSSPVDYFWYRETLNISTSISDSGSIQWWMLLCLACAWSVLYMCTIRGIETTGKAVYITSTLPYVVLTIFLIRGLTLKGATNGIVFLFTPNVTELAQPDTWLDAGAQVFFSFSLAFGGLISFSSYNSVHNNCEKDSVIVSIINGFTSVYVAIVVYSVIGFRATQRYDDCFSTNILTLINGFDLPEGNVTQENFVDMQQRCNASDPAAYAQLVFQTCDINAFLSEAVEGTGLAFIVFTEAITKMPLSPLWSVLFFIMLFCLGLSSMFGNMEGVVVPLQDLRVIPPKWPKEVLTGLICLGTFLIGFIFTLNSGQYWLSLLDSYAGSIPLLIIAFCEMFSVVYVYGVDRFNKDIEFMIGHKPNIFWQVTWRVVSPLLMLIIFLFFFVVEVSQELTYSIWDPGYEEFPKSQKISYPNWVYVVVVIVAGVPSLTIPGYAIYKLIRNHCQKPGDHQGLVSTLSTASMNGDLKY
T1 sequence (Q9HBJ8 15-222 partner): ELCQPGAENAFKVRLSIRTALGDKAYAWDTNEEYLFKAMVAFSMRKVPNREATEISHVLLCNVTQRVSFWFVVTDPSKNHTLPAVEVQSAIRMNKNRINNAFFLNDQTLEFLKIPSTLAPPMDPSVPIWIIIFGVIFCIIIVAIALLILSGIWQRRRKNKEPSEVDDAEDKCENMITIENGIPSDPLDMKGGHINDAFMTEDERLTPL
In words: Membrane potential detecting FLIPR assay in CHO-BC cells. The test is classed as cell-based. The note with it: 30 min pre-incubation, leucine or isoleucine 1.5 mM. How it is done:
CHO-B^0AT1-collectrin Cells (CHO-BC) were generated, cultured, and used as described recently ([Cheng et al., 2017]). Expression levels of B^0AT1 in CHO-BC cells decline over time. As a result, passages <10 were used for experiments. The cells were maintained in Ham’s F-12 glutamax media with 10% (v/v) fetal bovine serum (FBS, Heat inactivated, 10082147 Gibco), 1mM glutamine, 300μg/ml hygromycin B and 275 μg/ml geneticin.
Membrane depolarisation induced by amino acid transport was monitored using a FLIPR® kit (Molecular Devices, R8042 BLUE DYE). Before the assay, CHO-BC cells were seeded out at a density of 60,000 cells/well and maintained in a flat transparent bottom 96-well plate (Corning) overnight. After washing three times with Hank’s balanced salt solution (136.6 mM NaCl, 5.4 mM KCl, 0.44 mM KH2PO4, 2.7mM Na2HPO4, 1.26mM CaCl2, 0.5mM MgCl2, 0.4 mM MgSO4, 10mM HEPES, pH 7.5, supplemented with 5 mM glucose, abbreviated HBSS + G), cells in each well were incubated for 30 min at room temperature in 50 µl of HBSS pH 7.5 containing 5 mM glucose and compounds as indicated, together with 50 µl of dye-loading buffer provided with the kit. Subsequently, the fluorescence signal was detected every 10 s before and after the addition of leucine or isoleucine at a final concentration of 1.5 mM. Fluorescence was detected at room temperature using a PerkinElmer multimode Plate Reader, with an excitation wavelength of 530 nm and emission wavelength of 565 nm.
(§1) Data are shown as mean ± S.D., transport activities indicated as Na^+-dependent net uptake, were calculated by subtracting the uptake activity in the absence of Na^+ from the total uptake rate. The fluorescent signals measured in the FLIPR assay were normalized to baseline readings before the addition of substrates. Data are presented as percentage of baseline at each time point. IC50 was calculated using the equation: y=ymax(1−[x]/[x]+IC50) .

The target of test [2] is T1, B^0AT1. The test is described as follows: Radioactive flux assay (radiolabelled leucine/isoleucine uptake) in CHO-BC cells. The test is classed as cell-based. The note with it: 150 μM [14C]leucine or [14C]isoleucine, 6 min, 37°C. How it is done:
CHO-BC cells with passage numbers from 3 to 10 were used in radio-labelled uptake assays. Before the assay, the cells were seeded out in 35 mm dishes (Corning) and maintained for 48–72 h until reaching 80–90% confluence. To initiate transport, the culture medium was removed and the cells washed three times with HBSS + G. Subsequently, cells were incubated with HBSS + G, radiolabelled substrates (150 μM L-[U-^14C]leucine or 150 μM L-[U-^14C]isoleucine) and inhibitors as indicated in the figures or table in a 37°C water bath for 6 min. To terminate transport, cells were washed three times with ice-cold HBSS pH 7.5. For measuring sodium-independent uptake, NaCl in Hank’s buffer was replaced by NMDG-Cl. Cells were then harvested by homogenizing with 500 µl of 0.1 M HCl. An aliquot of 400 µl was used for scintillation counting and the remainder for protein quantification. To investigate inhibition of ASCT2, uptake of 100 μM [^14C]glutamine was measured in 143B cells in the absence and presence of inhibitor (at 10 μM and 50 μM). To measure inhibition of LAT1, uptake of [^14C]leucine was measured in HBSS + G in which NaCl was replaced by NMDG-Cl in 143B cells in the absence and presence of inhibitor (at 10 μM and 50 μM).
as §1

In test [3] the target is T2, B^0AT1 (Mus musculus, UniProt Q9D687).
T2 construct: from tissue; host or cells: small intestine of C57/BL6J female mice, inverted 1 cm sections
The test is described as follows: Na+-dependent leucine uptake in inverted sections of mouse intestine. The note with it: 50 μM inhibitor, 150 μM [14C]leucine. From the text: For uptake assays with inverted sections of mouse small intestine, 5–7 months old C57/BL6J female mice were sacrificed by cervical dislocation (Animal ethics protocol A2016/41, Australian National University). The small intestine was removed and the intestinal lumen was rinsed with ice-cold 0.9% NaCl. Subsequently, the small intestine was inverted on a metal rod to expose the mucosa. The inverted intestine was then cut into 1 cm pieces and fitted onto enzyme spatulas, which were immersed in HBSS pH 7.5 supplemented with 1 mM glutamine and protease inhibitor (Roche Complete). After washing twice in modified HBSS pH 7.5 (containing 10% NaCl + 90% NMDG-Cl for Na^+-dependent uptake and 100% NMDG-Cl for Na^+-independent uptake, both buffers supplemented with 1 mM glutamine) to remove residual compounds, the segments were pre-incubated in the same buffer in the presence of 50 µM of transport inhibitor and protease inhibitors for 15 min. At the end of the pre-incubation, the segments were transferred for 30 s into uptake buffer at 37°C (HBSS pH 7.5 supplemented with 150 μM [^14C]leucine and 50 µM transport inhibitor). For Na^+-dependent uptake regular HBSS was used, for Na^+-independent uptake NaCl was replaced by NMDG-Cl. Subsequently, the segments were rinsed three times in ice-cold HBSS pH 7.5 and lysed in 400 µl of 10% SDS. After 2–3 h, the lysed tissues were analyzed by scintillation counting.
To test whether the novel B^0AT1 inhibitors block the transporter in a more physiological environment, we studied leucine uptake in inverted sections of mouse intestine ( Figure 6C ). We established previously that Na^+-dependent leucine uptake (blue bars) in this system is mediated by B^0AT1 ([Broer et al., 2011]). In addition leucine uptake has a Na^+-independent transport component (salmon coloured bars), which is most likely mediated by rbat/b^0,+AT. Because of variability between animals, all data were normalized to uninhibited controls from the same animal.

The target in test [4] is T1, B^0AT1. The note with it: reference not printed at the place; ref Danthi et al., 2019; cited from earlier work.
For test [5], the system named is B^0AT1. The note with it: rat brush-border B^0AT1 in proteoliposomes; ref Pochini et al., 2014; cited from earlier work.

T2 sequence (Q9D687 whole entry): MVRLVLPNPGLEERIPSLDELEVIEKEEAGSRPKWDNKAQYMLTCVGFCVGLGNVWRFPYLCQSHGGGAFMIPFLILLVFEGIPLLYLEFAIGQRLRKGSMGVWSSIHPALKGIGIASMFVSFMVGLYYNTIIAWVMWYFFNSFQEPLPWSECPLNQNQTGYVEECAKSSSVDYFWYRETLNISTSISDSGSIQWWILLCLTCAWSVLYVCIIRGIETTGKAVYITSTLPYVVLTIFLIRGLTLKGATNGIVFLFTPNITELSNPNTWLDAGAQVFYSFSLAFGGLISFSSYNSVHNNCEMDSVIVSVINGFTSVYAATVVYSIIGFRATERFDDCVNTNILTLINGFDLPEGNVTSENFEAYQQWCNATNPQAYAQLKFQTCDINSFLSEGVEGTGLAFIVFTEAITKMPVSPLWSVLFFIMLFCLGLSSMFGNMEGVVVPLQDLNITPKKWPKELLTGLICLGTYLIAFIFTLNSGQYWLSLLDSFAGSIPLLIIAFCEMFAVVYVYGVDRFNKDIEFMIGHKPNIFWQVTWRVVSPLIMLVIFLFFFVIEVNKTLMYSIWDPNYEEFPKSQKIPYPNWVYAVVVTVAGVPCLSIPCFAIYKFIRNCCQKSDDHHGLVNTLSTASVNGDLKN
T2 sequence (Q8R0I0 18-805 partner): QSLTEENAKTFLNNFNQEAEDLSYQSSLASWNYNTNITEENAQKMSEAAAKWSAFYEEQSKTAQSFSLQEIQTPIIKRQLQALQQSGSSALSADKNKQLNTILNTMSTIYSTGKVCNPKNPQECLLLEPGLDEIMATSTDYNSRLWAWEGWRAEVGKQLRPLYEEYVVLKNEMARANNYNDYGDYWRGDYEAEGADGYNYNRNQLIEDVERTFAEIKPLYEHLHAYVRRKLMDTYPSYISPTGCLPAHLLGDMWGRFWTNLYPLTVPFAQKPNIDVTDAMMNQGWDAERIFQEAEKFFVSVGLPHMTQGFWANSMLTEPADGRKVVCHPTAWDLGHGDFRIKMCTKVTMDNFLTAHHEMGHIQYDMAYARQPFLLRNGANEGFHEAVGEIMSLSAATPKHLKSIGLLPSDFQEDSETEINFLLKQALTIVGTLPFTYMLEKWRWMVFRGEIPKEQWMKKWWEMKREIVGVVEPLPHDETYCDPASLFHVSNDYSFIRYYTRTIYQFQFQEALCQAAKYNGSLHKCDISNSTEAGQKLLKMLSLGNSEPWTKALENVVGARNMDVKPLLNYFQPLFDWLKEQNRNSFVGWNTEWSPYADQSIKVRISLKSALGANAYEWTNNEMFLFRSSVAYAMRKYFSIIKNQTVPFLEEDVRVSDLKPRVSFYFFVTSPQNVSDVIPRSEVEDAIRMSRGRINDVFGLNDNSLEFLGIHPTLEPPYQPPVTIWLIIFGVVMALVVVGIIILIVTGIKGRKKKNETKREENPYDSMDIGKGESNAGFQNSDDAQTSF

For the compound `CN1[C@@H]2CC[C@H]1C[C@@H](OC(c1ccccc1)c1ccccc1)C2` [Benztropin, benztropine, reference compound], the IC50 (in general, the concentration needed to halve the response being measured) at B^0AT1 [1] was found to be 44 ± 9 µM; at B^0AT1 [2], 71 ± 8 µM.

Regarding `CCNC(=O)/C=C/c1cccc(Br)c1` [Cinromide, cinromide, reference compound], the “Inhibition of Na+-dependent leucine uptake (B^0AT1) ex vivo” value on B^0AT1 [3] is “limited capacity to inhibit B^0AT1”. The values for the IC50 at B^0AT1 [4] and on B^0AT1 [1] were 0.3 µM and 0.5 ± 0.08 µM, respectively.

For `COc1ccc(C(CCCN2CCOCC2)c2ccccc2)cc1` (stereo not shown) [Compound E-47], the IC50 came out at 21 ± 6 µM against B^0AT1 [1] and 17 ± 9 µM on B^0AT1 [2].

Take `COc1ccc(C(CCCN2CCCCC2)c2ccccc2)cc1` (stereo not shown) [Compound E-53]: the IC50 worked out at 31 ± 15 µM against B^0AT1 [1] and 8 ± 4 µM at B^0AT1 [2].

Consider `COc1ccc(C(CCCN2CCOCC2)c2ccc(C)cc2)cc1` (stereo not shown) [Compound E-62], for which the IC50 was 20 ± 1 µM on B^0AT1 [1] and 16 ± 8 µM on B^0AT1 [2].

As to `COc1ccc(C(CCCN2CCCCC2)c2ccc(C)cc2)cc1` (stereo not shown) [Compound E-63], the concentration for half-maximal inhibition (IC50) at B^0AT1 [1] amounted to 32 ± 14 µM; at B^0AT1 [2], 39 ± 10 µM.

Regarding `COc1ccc(C(CCCN2CCOCC2)c2ccc(F)cc2)cc1` (stereo not shown) [Compound E-68], the values for the IC50 on B^0AT1 [1] and at B^0AT1 [2] were 33 ± 9 µM and 19 ± 6 µM, respectively.

In the case of `COc1ccc(C(CCCN2CCCCC2)c2ccc(F)cc2)cc1` (stereo not shown) [Compound E-69], the half-maximal inhibitory concentration (IC50) on B^0AT1 [1] came to 94 ± 20 µM; on B^0AT1 [2], 46 ± 7 µM.

For `Cc1ccc(C(CCCN2CCOCC2)c2ccc3c(c2)OCO3)cc1` (stereo not shown) [Compound E-84], the IC50 at B^0AT1 [1] came out at 31 ± 3 µM; on B^0AT1 [2], 19 ± 4 µM.

`Cc1ccc(C(CCCN2CCCCC2)c2ccc3c(c2)OCO3)cc1` (stereo not shown) [Compound E-85]: the IC50 was 36 ± 11 µM against B^0AT1 [1] and 8 ± 2 µM on B^0AT1 [2].

Consider `COc1ccc(C(CCCN2CCOCC2)c2ccc3c(c2)OCO3)cc1` (stereo not shown) [Compound E-89], for which the values for the 50% inhibitory concentration (IC50) against B^0AT1 [1] and at B^0AT1 [2] were 39 ± 4 µM and 34 ± 7 µM, respectively.

For the compound `COc1ccc(C(CCCN2CCCCC2)c2ccc3c(c2)OCO3)cc1` (stereo not shown) [Compound E-90], the IC50 against B^0AT1 [1] came out at 74 ± 19 µM; at B^0AT1 [2], 25 ± 8 µM.

With `c1ccc(CCCN2CCCCC2Cc2ccccc2)cc1` (stereo not shown) [NSC22789, reference compound], the IC50 against B^0AT1 [1] was determined as 90 ± 21 µM; at B^0AT1 [2], 78 ± 16 µM.

For the compound `CS(=O)(=O)Nc1ccc([N+](=O)[O-])cc1Oc1ccccc1` [Nimesulide], the half-maximal inhibitory concentration (IC50) in the test with B^0AT1 [5] is 23 µM.
